Assay results from PMC3314694, “Small Molecule Antagonists of the Wnt/Beta-Catenin Signaling Pathway Target Breast Tumor-Initiating Cells in a Her2/Neu Mouse Model of Breast Cancer” (PLoS ONE, 2012).

B1: Dkk1: secreted protein inhibitor of Wnt/β-catenin signaling, from RnDSystems (protein, UniProt O94907 32-266, looked up)
Dickkopf-related protein 1: TLNSVLNSNAIKNLPPPLGGAAGHPGSAVSAAPGILYPGGNKYQTIDNYQPYPCAEDEECGTDEYCASPTRGGDAGVQICLACRKRRKRCMRHAMCCPGNYCKNGICVSSDQNHFRGEIEETITESFGNDHSTLDGYSRRTTLSSKMYHTKGQEGSVCLRSSDCASGLCCARHFWSKICKPVLKEGQVCTKHRRKGSHGLEIFQRCYCGEGLSCRIQKDHHQASNSSRLHTCQRH
B2: Wnt3A: stimulatory ligand of Wnt/β-catenin signaling, from RnDSystems (protein, UniProt P56704 19-352, looked up)
Protein Wnt-3a: SYPIWWSLAVGPQYSSLGSQPILCASIPGLVPKQLRFCRNYVEIMPSVAEGIKIGIQECQHQFRGRRWNCTTVHDSLAIFGPVLDKATRESAFVHAIASAGVAFAVTRSCAEGTAAICGCSSRHQGSPGKGWKWGGCSEDIEFGGMVSREFADARENRPDARSAMNRHNNEAGRQAIASHMHLKCKCHGLSGSCEVKTCWWSQPDFRAIGDFLKDKYDSASEMVVEKHRESRGWVETLRPRYTYFKVPTERDLVYYEASPNFCEPNPETGSFGTRDRTCNVSSHGIDGCDLLCCGRGHNARAERRREKCRCVFHWCCYVSCQECTRVYDVHTCK

Experiments:
[1] = tested on: mammosphere-derived cells; assay: Sphere forming assay, mammosphere-derived cells; format: cell-based, mouse
Text: (§1) To determine whether Wnt/β-catenin signaling was required for BTIC and mammary epithelial stem and progenitor cell function in vitro, we examined the effect of agonists and antagonists of Wnt/β-catenin signaling on sphere formation, which when performed under appropriate conditions is thought to be an attribute of stem/progenitor cells and TICs, [38], [39], [40]. We seeded dispersed cells dissociated from mammospheres and tumorspheres into media containing either Dkk1 or Wnt3a at concentrations previously shown to be sufficient to inhibit or activate the Wnt/β-catenin signaling pathway, respectively, [42]. Dkk1 is a secreted protein inhibitor [43], and Wnt3A is a stimulatory ligand of Wnt/β-catenin signaling. […] We used the small molecule BIO to inhibit GSKβ, a negative regulator of Wnt/β-catenin signaling.
(§2) We similarly tested pharmacological agents, which target Wnt/β-catenin signaling (PKF118–310, PKF115–584, CGP049090), for their affect on sphere formation. These inhibitors are specific antagonists of Wnt/β-catenin signaling that interrupt the […] step in pathway activation, namely the interaction between β-catenin and Tcf/Lef transcription factors. We seeded freshly isolated primary tumor cells and primary mammary epithelial cells, as well as mammosphere- and tumorsphere-derived cells into medium containing various concentrations of the inhibitors.
(§3) The #3 and #4 mammary glands from virgin female FVB/N mice (6–8 weeks old) and mammary tumors were isolated as described previously, [56]. Mammospheres and tumorspheres were established from the bulk primary mammary epithelial and tumor cell population respectively as described previously. Serial passage of the mammospheres and tumorspheres was accomplished by mechanically dissociated the cells from spheres using titruation and reseeding the dispersed cells into fresh medium. Passage of the spheres was limited to 3–5 serial passages before the cells were harvested and RNA prepared. To induce a differentiation program in mammospheres in vitro, intact mammospheres were collected by centrifugation, the spheres were dissociated and the dispersed cells were plated at a density of 150,000 cells/ml on rat-tail collagen (Roche, Basel, Switzerland) coated 60 mm Petri dishes, [59]. The cells were incubated for a week before they were harvested and used to prepare cellular RNA for analyses.
(§4) Sphere and colony forming assays were completed as previously described. Dkk1 and Wnt3A were obtained from RnDSystems (Minneapolis, Minnesota). PKF118–310, PKF115–584 and CGP049090 were a gift from Novartis (Basel, Switzerland).
(§5) The 50% inhibitory concentration (IC50) of compounds was calculated using GraphPad Prism5 software. X-axis values were X = Log(X) transformed and then fit with a dose-response curve. The DMSO vehicle control was included to aid IC50 calculation and was assigned a 1 nM concentration of the tested compound.

[2] = tested on: tumorsphere-derived cells; assay: Sphere forming assay, tumorsphere-derived cells; format: cell-based, mouse
Text: as §1, §2, §3, §4, §5

[3] = tested on: primary mammary epithelial cells; assay: Sphere forming assay, primary mammary epithelial cells; format: cell-based, mouse
Text: as §2
The #3 and #4 mammary glands from virgin female FVB/N mice (6–8 weeks old) and mammary tumors were isolated as described previously, [56]. Mammospheres and tumorspheres were established from the bulk primary mammary epithelial and tumor cell population respectively as described previously. Serial passage of the mammospheres and tumorspheres was accomplished by mechanically dissociated the cells from spheres using titruation and reseeding the dispersed cells into fresh medium. Passage of the spheres was limited to 3–5 serial passages before the cells were harvested and RNA prepared. […]

[4] = tested on: primary tumor cells; assay: Sphere forming assay, primary tumor cells; format: cell-based, mouse; conditions: for IC50: primary tumor cells; for selectivity (IC50 MMS/IC50 TMS) for primary tumor cells over primary mammary epithelial cells: sphere forming assays
Text: as §2, §3, §4, §5

[5] = tested on: primary tumor cells; assay: Secondary sphere-forming assay (self-renewal), primary tumor cells; format: cell-based, mouse; conditions: 1 µM during 4-day primary sphere assay; secondary spheres in medium lacking inhibitor
Text: (§6) To learn whether the inhibitory compounds affected the self-renewal of sphere-forming cells, we investigated the capacity of cells exposed to the compounds to serially form spheres. In short, dispersed primary mammary epithelial cells and primary tumor cells were exposed to PKF118–310 during a 4-day primary sphere-forming assay. The spheres that formed were counted, the cells dissociated from the spheres and the dispersed cells plated to form secondary spheres in fresh medium lacking the inhibitors.

[6] = tested on: BTICs in tumors; assay: Secondary transplant of tumor cells harvested from treated mice; format: in vivo; conditions: 10,000 cells/mouse from treated mice
Text: The principal objective of our experiments was to learn whether inhibition of Wnt/β-catenin signaling targeted BTICs in tumors. […] We reasoned that if PKF118–310 selectively targeted BTICs in vivo, viable cells isolated from PKF118–310 treated tumor-bearng hosts would engraft and elicit tumor growth less efficiently relative to their vehicle-treated counterparts. To this end, we transplanted tumor cells by injecting them sub-cutaneously (n = 20, PKF118–310-treated; n = 20, vehicle-treated) between the shoulders of syngeneic mice (10,000 cells/mouse) and measured tumor latency in the PKF118–310-treated and vehicle-treated transplant cohorts. […]
Freshly isolated primary tumor (100,000) cells were suspended in 50% Matrigel (BD, Franklin Lakes, New Jersey), 45% phosphate buffered saline pH7.4 (PBS) and 5% fetal bovine serum (FBS) [Invitrogen, Carlsbad, California], and the cells were injected subcutaneously between the shoulders into syngeneic 6–8 week-old female mice (FVB/N strain). Mice were monitored by palpation weekly for the occurrence of tumors. […] Tumor volume was measured twice weekly. […] Viable tumor cells (assessed by TrypanBlue staining) from vehicle- and compound-treated mice were isolated as described above and 10,000 cells were transplanted subcutaneously into syngeneic mice (n = 20, treated; n = 20, untreated).

[7] = tested on: primary mammary epithelial cells; assay: Secondary sphere-forming assay (self-renewal), primary mammary epithelial cells; format: cell-based, mouse; conditions: 1 µM during 4-day primary sphere assay; secondary spheres in medium lacking inhibitor
Text: as §6

[8] = tested on: pre-established breast tumors; assay: In vivo compound administration to tumor-bearing mice; set-up: species or system mouse
Text: To determine whether PKF118–310 affected the growth of pre-established breast tumors and reduced BTIC frequency in vivo, we transplanted primary breast tumor cells into syngeneic mice and treated these hosts with PKF118–310 after the tumors had reached a volume of ∼1 cm^3. […] After treatment ceased the tumors in mice administered the vehicle were ∼3 fold larger than those in PKF118–310-treated mice (Fig. 4B, *p<0.05).
To uncover potential mechanisms whereby the compound halted tumor growth, we prepared sections from the tumors of both cohorts and stained them with Hematoxylin and Eosin (H&E). […] In some cases the cell-free areas contained material, characteristic of milk protein secretions. […] We also examined whether inhibition of tumor growth was accomplished by a reduction in cell proliferation and/or induction of apoptosis. We stained tumor sections for markers of proliferation (Ki67) and apoptosis (cleaved caspase-3 and TUNEL). We observed a significant decrease in the frequency of Ki67 positive tumor cell nuclei in the PKF118–310 treated tumor-bearing mice compared to their vehicle-treated counterparts (Fig. 4D&E). […] Tumors from PKF118–310 treated mice comprised approximately 3–4-fold fewer Ki67-positive cells than tumors from vehicle-treated mice. We similarly simultaneously stained the tumor sections with antibodies to a luminal lineage marker (CK8) and with those to each of two myoepithelial lineage markers (CK14 and alpha-smooth muscle actin [alpha-SMA). The vast majority of the cells in sections prepared from tumors of the vehicle-treated mice expressed only the luminal lineage marker in keeping with previous findings (data not shown). Tumor sections prepared from tumors of the mice administered PKF118–310 also only expressed the luminal lineage marker.
To learn whether administration of PKF118–310 to tumor-bearing mice inhibited Wnt/β-catenin signaling in tumors, we measured the abundance of Wnt/β-catenin target gene transcripts in the tumor cells.
Freshly isolated primary tumor (100,000) cells were suspended in 50% Matrigel (BD, Franklin Lakes, New Jersey), 45% phosphate buffered saline pH7.4 (PBS) and 5% fetal bovine serum (FBS) [Invitrogen, Carlsbad, California], and the cells were injected subcutaneously between the shoulders into syngeneic 6–8 week-old female mice (FVB/N strain). Mice were monitored by palpation weekly for the occurrence of tumors. When tumors reached roughly 1 cm^3, the mice were administered either the vehicle (0.1% DMSO) or PKF118–310 (0.85 mg/kg) dissolved in 0.1% DMSO by intra-tumoral injection for 5 consecutive days followed by a 2-day rest period before compound administration was repeated once. Tumor volume was measured twice weekly. At the end of the 12-day treatment cycle the mice were sacrificed and their tumors harvested for analysis. […] Viable tumor cells (assessed by TrypanBlue staining) from vehicle- and compound-treated mice were isolated as described above and 10,000 cells were transplanted subcutaneously into syngeneic mice (n = 20, treated; n = 20, untreated).
Paraformaldehyde fixed tumor fragments were embedded in paraffin, sectioned and stained with H&E. The tumor sections were de-paraffinized and rehydrated in ethanol (100-70% gradient) before immunofluorescent analysis. Antigen retrieval was performed in Antigen Unmasking Solution (Vector, Burlingame, California). Slides were blocked with 3% normal goat serum (Dako, Denmark) and incubated with primary antibodies for 2 hours at room temperature (Ki67, 1∶200 [ABCAM, Cambridge, Massachusetts]. Secondary antibodies (Invitrogen) were used at a 1∶200 dilution for 1 hour at room temperature.

[9] = tested on: primary tumor cells (BTIC); assay: Ex vivo treatment of primary tumor cells and transplant into syngeneic mice; format: in vivo, mouse
Experimental: We incubated freshly isolated primary tumor cells under sphere forming conditions in presence of vehicle (DMSO) or PKF118–310 (1 µM or 2.5 µM concentrations). After 4 days the spheres were collected, dissociated and equal numbers (5,000) of viable PKF118–310- and vehicle-treated cells were injected sub-cutaneously into the syngeneic mice. Upon endpoint, when the tumor in any individual mouse reached 10% of its weight (∼6 weeks) all the animals were sacrificed and the tumors harvested.
as §4

[10] = 0.85 mg/kg, qRT-PCR, versus vehicle

Row | Molecule | effect on sphere formation [1] | effect on sphere formation [2] | IC50 [1] [µM] | IC50 [2] [µM] | IC50 [3] [µM] | IC50 [4] [µM] | selectivity (IC50 MMS/IC50 TMS) for primary tumor cells over primary mammary epithelial cells [4] | also measured
1 | O=C1Nc2cc(Br)ccc2/C1=C1/Nc2ccccc2/C1=N\O [BIO] | stimulated sphere formation | stimulated sphere formation |  |  |  |  |  | 
2 | PKF115–584 |  |  | 1.39 | 1.34 | 2.05 | 0.31 | 6–7 fold | 
3 | Cn1ncnc2c(=O)n(C)c(=O)nc1-2 [PKF118–310] |  |  | 0.54 | 0.94 | 1.54 | 0.58 | 2–3 fold | reduction of capacity to form secondary spheres relative to vehicle [5]: ~10 fold; mice remaining tumor free ([6]; 12 week follow-up): 85%; mice forming tumor grafts ([6]; vehicle 20/20): 3 of 20; secondary mammosphere formation relative to vehicle [7]: at the same frequency as the vehicle-treated mammary epithelial cells; effect on tumor growth ([8]; 0.85 mg/kg intra-tumoral, 12 days (5 on, 2 off, 5 on)): inhibited tumor growth; tumor regression during treatment ([8]; 0.85 mg/kg, 12 days): did not induce significant tumor regression; abundance of axin2 transcripts in tumors [8, 10]: significantly lower; abundance of cyclin D1 transcripts in tumors [8, 10]: significantly lower; tumor volume after treatment, vehicle larger than treated ([8]; 0.85 mg/kg, t = 12 days): ~3 fold; Ki67-positive cells, fewer than in vehicle tumors ([8]; 0.85 mg/kg, tumor sections): 3–4 fold; cleaved caspase-3 or TUNEL staining (apoptosis) in tumors ([8]; 0.85 mg/kg, tumor sections): did not observe any positive staining; tumor latency versus vehicle-treated cells ([9]; cells incubated with 1 µM for 4 days): longer latency; tumor size at endpoint, smaller than vehicle-treated ([9]; cells incubated with 1 µM for 4 days, 5,000 viable cells s.c.): approximately 50%; tumor mass at endpoint ([9]; cells incubated with 1 µM for 4 days, 5,000 viable cells s.c., ∼6 weeks, control 0.49 g): 0.26 g; tumor initiation after transplant ([9]; cells incubated with 2.5 µM for 4 days, 5,000 viable cells s.c., ∼6 weeks): failed to initiate tumor growth in any of the host mice
4 | B1 | reduced sphere formation | reduced sphere formation |  |  |  |  |  | 
5 | B2 | stimulated sphere formation | stimulated sphere formation |  |  |  |  |  | 
